Source: patent US8945540B2, “Compositions for enhancing the antibacterial activity of myeloperoxidase and methods of use thereof” (Exoxemis, Inc., priority 2008, dated 2015)
In brackets after ≈: the same amount, converted by molar mass. Blank lines part the entries; values can stand above or below the molecule they belong to.

Legend:
S. pyogenes = assay: MIC, modified CLSI broth microdilution (CAMHB with 5% lysed horse blood); format: cell-based; settings: Streptococcus pyogenes, 33 clinical isolates
Protocol: (§2) Modifications were made to the standard broth microdilution method to accommodate the rapid in vitro activity of the Enhanced MPO Solution as described below. Each antimicrobial agent and Concentrate solution was diluted in double strength cation-adjusted Mueller-Hinton Broth (CAMHB) and dispensed in mircrodilution trays. All β-hemolytic streptococci were tested in double strength CAMHB supplemented with 5% lysed horse blood. Isolates were prepared by suspending several colonies (four to six) from an overnight culture on Trypticase Soy Agar (TSA) with 5% sheep blood into sterile saline and the density adjusted to a 0.5 McFarland standard (˜10^8 CFU/ml). Standardized bacterial suspensions were further diluted in double strength Diluent solution so that approximately 5×10^5 CFU/ml was mixed with serial drug dilutions. […] The microdilution trays were incubated in ambient air at 35° C. for 18 to 24 h.

S. agalactiae = assay: as above; format: cell-based; settings: Streptococcus agalactiae, 34 clinical isolates
Protocol: as §2

S. epidermidis = assay: MIC, modified CLSI broth microdilution; format: cell-based, Staphylococcus epidermidis
Protocol: as §2

E. faecalis = assay: MIC, modified CLSI broth microdilution; format: cell-based, Enterococcus faecalis
From the text: (§1) All clinical isolates were obtained from the culture collection of Eurofins Medinet Anti-Infective Services (Herndon, Va.), and represent diverse geographical regions. They were originally derived from clinical specimens and identified using standard microbiological methods (see Table 33 below for details). Escherichia coli ATCC 25922, Staphylococcus aureus ATCC 25923, S. aureus ATCC 29213, Pseudomonas aeruginosa ATCC 27853, and Enterococcus faecalis ATCC 29212 were used as quality control strains for the Enhanced MPO Solution and comparator agents to validate the modified Clinical and Laboratory Standards Institute (CLSI, formally NCCLS) broth microdilution method.
Modifications were made to the standard broth microdilution method to accommodate the rapid in vitro activity of the Enhanced MPO Solution as described below. Each antimicrobial agent and Concentrate solution was diluted in double strength cation-adjusted Mueller-Hinton Broth (CAMHB) and dispensed in mircrodilution trays. All β-hemolytic streptococci were tested in double strength CAMHB supplemented with 5% lysed horse blood. Isolates were prepared by suspending several colonies (four to six) from an overnight culture on Trypticase Soy Agar (TSA) with 5% sheep blood into sterile saline and the density adjusted to a 0.5 McFarland standard (˜10^8 CFU/ml). Standardized bacterial suspensions were further diluted in double strength Diluent solution so that approximately 5×10^5 CFU/ml was mixed with serial drug dilutions. […]
MIC ranges were established for the Enhanced MPO Solution by testing over 20 replicates of one lot of the Enhanced MPO Solution against S. aureus ATCC 29213 and E. coli ATCC 25922. Quality control parameters were then determined for the Enhanced MPO Solution by testing three lots of the Concentrate solution used for preparation of the final Enhanced MPO Solution formulation. […] The effects of modifying the standard broth microdilution test were also assessed with antibiotics with known quality control limits to validate the CLSI broth microdilution method.

[1] = test system: streptococci groups C, F, and G; assay: MIC, modified CLSI broth microdilution (CAMHB with 5% lysed horse blood); format: cell-based, Streptococcus Group C, Group F, Group G; settings: for MIC Range: range for all strains tested
Protocol: as §2

S. aureus = assay: MIC, modified CLSI broth microdilution; format: cell-based, Staphylococcus aureus
From the text: as §1
Modifications were made to the standard broth microdilution method to accommodate the rapid in vitro activity of the Enhanced MPO Solution as described below. Each antimicrobial agent and Concentrate solution was diluted in double strength cation-adjusted Mueller-Hinton Broth (CAMHB) and dispensed in mircrodilution trays. All β-hemolytic streptococci were tested in double strength CAMHB supplemented with 5% lysed horse blood. Isolates were prepared by suspending several colonies (four to six) from an overnight culture on Trypticase Soy Agar (TSA) with 5% sheep blood into sterile saline and the density adjusted to a 0.5 McFarland standard (˜10^8 CFU/ml). Standardized bacterial suspensions were further diluted in double strength Diluent solution so that approximately 5×10^5 CFU/ml was mixed with serial drug dilutions. The addition of Diluent solution to the Concentrate solution activates the enzyme system, which in turn exerts its rapid mode of action. The microdilution trays were incubated in ambient air at 35° C. for 18 to 24 h.
MIC ranges were established for the Enhanced MPO Solution by testing over 20 replicates of one lot of the Enhanced MPO Solution against S. aureus ATCC 29213 and E. coli ATCC 25922. Quality control parameters were then determined for the Enhanced MPO Solution by testing three lots of the Concentrate solution used for preparation of the final Enhanced MPO Solution formulation. Testing was performed in duplicate against S. aureus ATCC 29213 and E. coli ATCC 25922. The effects of modifying the standard broth microdilution test were also assessed with antibiotics with known quality control limits to validate the CLSI broth microdilution method.

E. faecium = assay: MIC, modified CLSI broth microdilution; format: cell-based; settings: Enterococcus faecium, 22 clinical isolates
Protocol: as §2

Staphylococcus aureus [2] = assay: Microbicidal activity of the myeloperoxidase system (p-MPO, glucose oxidase, glucose) with amino acids in the presence of blood, CFU plate counts; synergy determination from these CFU; format: cell-based; settings: for Average Viability CFU/ml 50 min / Log Reduction 50 min: single amino acid 2.5 mM, MPO 4.7 U/ml, GO 4.2 U/ml, in the presence of blood
How it was run: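 Staphylococcus aureus grown 24 hours in TSB at 35° C was washed in saline and added at a final 2-3×10^7 CFU per mL. The bacteria were mixed in 1 mL reactions with porcine myeloperoxidase, glucose oxidase, amino acids, 150 mM sodium chloride and 3% venous whole blood. Adding glucose to 150 mM started killing. After catalase addition, survivors were counted by serial dilution plating on TSA at 37° C for 24 hours.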

Bacillus subtilis spores = assay: Myeloperoxidase system with beta alanine and L-alanine against spores in the presence of blood; format: cell-based; settings: 2 hours, MPO 25 μg/mL (9.4 U/mL), GO 8.3 U/mL
Protocol: The effect of a two-way combination of beta alanine and L-alanine, as potential enhancing agents, for MPO microbicidal action against Bacillus subtilis spores in the presence of blood, was determined following the procedure of Example 2. However, in this case each test contained a single low concentration of MPO (25 μg/mL or 9.4 U/mL) and glucose oxidase (8.3 U/mL). […] The effect of both L-alanine and beta alanine alone on the myeloperoxidase antimicrobial activity against Bacillus subtilis spores was tested for comparison.
The nature of the relationship between beta alanine and L-alanine was examined following the synergy determination method described above.

Staphylococcus aureus [3] = assay: Control: microbicidal activity of the amino acid or analogue alone (no glucose, MPO, glucose oxidase) in the presence of blood; format: cell-based; settings: amino acid alone 5 mM, MPO 0, GO 0, no glucose, blood, without replication
From the text: As a control to determine the microbicidal activity of the amino acids alone, the foregoing procedure was followed without replication, except in the absence of glucose, MPO, and glucose oxidase.

[4] = Staphylococcus epidermidis, 31 clinical isolates
[5] = Enterococcus faecalis, 33 clinical isolates
[6] = Streptococcus Group G, 18 clinical isolates
[7] = Staphylococcus aureus, 109 clinical isolates
[8] = Table 2, amino acid 5 mM (none: 0 mM), MPO 38 U/ml, GO 33.3 U/ml, blood

MIC50 (S. pyogenes): 0.12 µg/mL (≈ 0.24 µM)
MIC90 (S. pyogenes): 0.25 µg/mL (≈ 0.499 µM)
MIC Range (S. pyogenes; range for all strains tested): 0.06 to 0.5 µg/mL
MIC50 (S. agalactiae): 0.5 µg/mL (≈ 0.999 µM)
MIC90 (S. agalactiae): 0.5 µg/mL (≈ 0.999 µM)
MIC Range (S. agalactiae; range for all strains tested): 0.12 to 2 µg/mL
MIC50 (S. epidermidis; [4]): 0.12 µg/mL (≈ 0.24 µM)
MIC90 (S. epidermidis; [4]): > 32 µg/mL
MIC range, upper end (S. epidermidis; clinical isolates): > 32 µg/mL
MIC50 (E. faecalis; [5]): 32 µg/mL (≈ 63.9 µM)
MIC90 (E. faecalis; [5]): > 32 µg/mL
MIC range, upper end (E. faecalis; clinical isolates): > 32 µg/mL
MIC Range ([1]; Streptococcus Group C, 8 clinical isolates): 0.06 to 0.5 µg/mL
MIC Range ([1]; Streptococcus Group F, 2 clinical isolates): 0.25-0.25 μg/ml
MIC50 [1, 6]: 0.12 µg/mL (≈ 0.24 µM)
MIC90 [1, 6]: 0.12 µg/mL (≈ 0.24 µM)
MIC Range [1, 6]: 0.06 to 0.5 µg/mL
MIC50 (S. aureus; [7]): 0.06 µg/mL (≈ 0.12 µM)
MIC90 (S. aureus; [7]): 0.12 µg/mL (≈ 0.24 µM)
MIC range, upper end (S. aureus; clinical isolates): > 32 µg/mL
MIC50 (E. faecium): 0.25 µg/mL (≈ 0.499 µM)
MIC90 (E. faecium): 0.25 µg/mL (≈ 0.499 µM)
MIC Range (E. faecium; range for all strains tested): 0.06 to 0.5 µg/mL
SMILES: C/C(=C\C(=O)OCCCCCCCCC(=O)O)C[C@@H]1OC[C@H](C[C@@H]2O[C@H]2[C@@H](C)[C@H](C)O)[C@@H](O)[C@H]1O [mupirocin]
MIC by the modified method versus published quality control ranges (S. aureus; S. aureus ATCC 29213, inoculum prepared in Diluent solution): within previously published quality control ranges

SMILES: C[C@H](N)C(=O)O [L-Alanine]
Log 10 (CFU + 1) Survivors (Staphylococcus aureus [2]; MPO 25 μg/mL, AA 5 mM, 30 min): 6.9
Log 10 (CFU + 1) Survivors (Staphylococcus aureus [2]; MPO 25 μg/mL, AA 5 mM, 60 min): 4.1
Log 10 (CFU + 1) Survivors (Staphylococcus aureus [2]; MPO 25 μg/mL, AA […], 30 min): 7.0
Log 10 (CFU + 1) Survivors (Staphylococcus aureus [2]; MPO 25 μg/mL, AA […], 60 min): 4.7
Log 10 (CFU + 1) Survivors (Staphylococcus aureus [2]; MPO 100 μg/mL, AA 5 mM, 30 min): 5.1
Log 10 (CFU + 1) Survivors (Staphylococcus aureus [2]; MPO 100 μg/mL, AA 5 mM, 60 min): 0.0
Log 10 (CFU + 1) Survivors (Staphylococcus aureus [2]; MPO 100 μg/mL, AA 20 mM, 30 min): 6.1
Log 10 (CFU + 1) Survivors (Staphylococcus aureus [2]; MPO 100 μg/mL, AA 20 mM, 60 min): 0.0
Average Viability CFU/ml 60 min (Staphylococcus aureus [2]; [8]): 7 CFU/ml
Log 10 (CFU + 1) Survivors 60 min (Staphylococcus aureus [2]; [8]): 0.9
Log Reduction 60 min (Staphylococcus aureus [2]; [8]): 6.5
Average Viability CFU/ml 50 min (Staphylococcus aureus [2]; Table 10): 9750000 CFU/ml
Log Reduction 50 min (Staphylococcus aureus [2]; Table 10): 0.4
Average Viability CFU/ml 50 min (Staphylococcus aureus [2]; Table 13): 2230000 CFU/ml
Log Reduction 50 min (Staphylococcus aureus [2]; Table 13): 1.0
Average Viability CFU/ml 50 min (Staphylococcus aureus [2]; Table 14): 2215000 CFU/ml
Log Reduction 50 min (Staphylococcus aureus [2]; Table 14): 1.1
CFU survivors (Bacillus subtilis spores): 520000 CFU
log reduction (Bacillus subtilis spores): 1.5 log
log reduction at 5000 µM (Staphylococcus aureus [3]; Staphylococcus aureus, 1 h, read-out: Log Reduction 60 min): 0
Average Viability CFU/ml 60 min (Staphylococcus aureus [3]): 24100000 CFU/ml
